≈ marks a conversion by molar mass, not a printed value. Like-named read-outs stand apart in the source and are kept apart here.

In experiment [1] the test system is E. coli strains (e.g. BL21 or DH10beta). The experiment is described as follows: Growth of E. coli on LB medium with varying antibiotic concentrations (MIC). The conditions noted are these: for Antibiotic concentration to which resistance is conferred: E. coli transformed with mutated GPR55 clones; for MIC: Escherichia coli. The experiment is classed as cell-based.

In experiment [2] the target is T1, WT-GPR55 (Homo sapiens, UniProt Q9Y2T6).
T1 construct: expressed in transfected cells
T1 sequence (Q9Y2T6 with tags, fused parts or gaps): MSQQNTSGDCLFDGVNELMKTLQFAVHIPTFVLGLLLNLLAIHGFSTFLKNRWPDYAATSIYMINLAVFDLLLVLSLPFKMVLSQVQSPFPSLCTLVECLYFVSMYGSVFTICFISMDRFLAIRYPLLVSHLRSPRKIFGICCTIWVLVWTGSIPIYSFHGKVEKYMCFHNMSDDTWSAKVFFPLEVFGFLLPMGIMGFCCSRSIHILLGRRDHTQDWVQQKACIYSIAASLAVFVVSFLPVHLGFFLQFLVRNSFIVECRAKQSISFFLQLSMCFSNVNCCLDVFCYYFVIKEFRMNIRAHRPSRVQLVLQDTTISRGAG
The experiment is described as follows: Genetic immunization of mice with protein boost, FACS analysis of sera on transfected cells. The experiment is classed as in vivo. The conditions noted are these: C57BL6 mice; 50 μg cDNA in NanoTaxi, 2 DNA boosts, 1 boost with 50 μg purified protein in IFA; polyclonal sera by FACS. As for the experimental part:
The genetic immunization work was performed using NanoTaxi® at In-Cell-Art (Nantes, France). NanoTaxi® is a DNA delivery system optimized for genetic immunization where the delivered genetic material is formulated with a mixture of different chemical families of lipids and polymers.
The cDNA corresponding to the EMP012 of the GPR55 receptor was cloned into a pCMV-based vector and cell surface expression was confirmed via transient transfection of HEK293T and HeLa cells prior to immunogen administration.
C57BL6 mice were immunized with 50 μg EMP012 cDNA construct formulated into the NanoTaxi® for the primary challenge, followed by 2 boosts of 50 μg using the same NanoTaxi®-based formulation at two-weekly intervals, followed by 1 boost using 50 μg purified EMP012 protein in IFA adjuvant. In some instances, boosting was carried out for the in-vivo affinity maturation by somatic hypermutation of the primary antibody response. The level of immune response was assessed at regular intervals by FACS analysis using Hela cells transfected with an unrelated GPCR (left panel) or WT-GPR55 (right panel) (FIG. 7).

Where [3] appears, read: E. coli containing a plasmid encoding wild-type human GPR55.
[4] abbreviates: E. coli expressing certain constructs containing NTSR1 (rat, aa 43-424), read-out: Apparent MIC.

On to `CC1(C)S[C@@H]2[C@H](NC(=O)C(C(=O)O)c3ccccc3)C(=O)N2[C@H]1C(=O)O` (some centres unmarked) [carbenicillin], for which the “Antibiotic concentration to which resistance is conferred” value in experiment [1] is more than 80 mg/L. For the same molecule, the MIC in experiment [1] (setting [3]) was approximately 40 µg/mL (≈ 106 µM); in experiment [1] (setting [4]), more than 75 µg/mL.

For the molecule `NC[C@H]1O[C@H](O[C@H]2[C@H](O)[C@@H](O[C@H]3O[C@H](CO)[C@@H](O)[C@H](N)[C@H]3O)[C@H](N)C[C@@H]2N)[C@H](O)[C@@H](O)[C@@H]1O` [kanamycin], the “Antibiotic concentration to which resistance is conferred” value in experiment [1] is more than 50 mg/L. Also, the MIC in experiment [1] (setting [3]) is approximately 25 µg/mL (≈ 51.6 µM); in experiment [1] (setting [4]), more than 50 µg/mL; in experiment [1] (untransformed cells, LB medium), approximately 10 µg/mL (≈ 20.6 µM).

B1: EMP012: Modified GPR55 receptor (Enabled Membrane Protein), SEQ ID NO: 2, mutated relative to wild-type GPR55; used as cDNA and purified protein (protein, listed as Homo sapiens)
chain: MSQQNTSGNCLFDGMNELMKTLQFAVHIPTFVLGLLLNLLAIHGFSTFLKNRWPDYAATSIYMINLAVFDLLLVLSLPFKIVLSQVQSPFPSLCTLVECLYFVSMYGSVFTICFISMDRFLAIRYPLLVSHLRSPRKIFGICCTIWVLVWTGSIPIYSFHGKVEKYMCFHNMSDDTWSAKVFFPLEVFGFLLPMGIMGFCCSRSIHILLGRRDHTQDWVQQKACIYSIAASLAVFVVSFLPVHLGFFLQFLVRNSFIVECRAKQSISFFLQLSKCFSNVNCCLDVFCYYFVIKEFRMNIRAHRPSRVQLVLQDTTISRGAG
In the case of B1, the “Immune response against WT-GPR55” value in experiment [2] was “robust and specific immune response”.

(Values after patent US10845367B2, “Modified multispanning membrane polypeptides and methods of use thereof to screen therapeutic agents” (Abilita Bio, Inc., priority 2016, dated 2020).)
